Assay results: the supplement of paper PMC12463676, “Small-molecule dissolution of stress granules by redox modulation benefits ALS models” (Nature Chemical Biology, 2025)

What was measured:
potassium arsenate = compound: O=[As]([O-])(O)O.[K+] [potassium arsenate]; test: thermal stability z-score vs DMSO; higher = more thermally stabilized by treatment; settings: HeLa; arsenate concentration 1 mM
Protocol: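 Cellular thermal proteome profiling in HeLa cells treated with 1 mM arsenate for 1 h (DMSO pretreatment), heated to ten temperatures (37-66.3 °C). Soluble protein was quantified by TMT mass spectrometry relative to DMSO controls; the thermal stability score was transformed to a z-score; mean of n = 3 experiments.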

lipoamide = compound: NC(=O)CCCCC1CCSS1 [lipoamide]; test: as above; settings: HeLa, lipoamide concentration 100 µM
Protocol: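 Cellular thermal proteome profiling in HeLa cells. Cells were treated with 100 µM lipoamide for 1 h, with or without 1 mM arsenate for a further 1 h, then heated to ten temperatures (37-66.3 °C), and soluble protein was quantified by TMT mass spectrometry relative to 0.1% DMSO controls. The thermal stability score (sum of log2 fold changes minus the abundance score) was transformed to a z-score; mean of n = 3 experiments.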

[1] = arsenate co-treatment: 1 mM arsenate 1 h
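Note: each temperature applied for 3 min, abundance score taken as mean log2 fold change at the two lowest temperatures, z-score obtained by mean subtraction and division by SD.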

UniProt P57105, sequence (P57105 whole entry): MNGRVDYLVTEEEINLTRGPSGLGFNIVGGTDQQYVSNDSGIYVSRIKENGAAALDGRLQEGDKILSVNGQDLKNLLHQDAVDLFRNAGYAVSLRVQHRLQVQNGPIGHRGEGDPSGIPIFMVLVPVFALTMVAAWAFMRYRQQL
UniProt O94888, sequence (O94888 whole entry): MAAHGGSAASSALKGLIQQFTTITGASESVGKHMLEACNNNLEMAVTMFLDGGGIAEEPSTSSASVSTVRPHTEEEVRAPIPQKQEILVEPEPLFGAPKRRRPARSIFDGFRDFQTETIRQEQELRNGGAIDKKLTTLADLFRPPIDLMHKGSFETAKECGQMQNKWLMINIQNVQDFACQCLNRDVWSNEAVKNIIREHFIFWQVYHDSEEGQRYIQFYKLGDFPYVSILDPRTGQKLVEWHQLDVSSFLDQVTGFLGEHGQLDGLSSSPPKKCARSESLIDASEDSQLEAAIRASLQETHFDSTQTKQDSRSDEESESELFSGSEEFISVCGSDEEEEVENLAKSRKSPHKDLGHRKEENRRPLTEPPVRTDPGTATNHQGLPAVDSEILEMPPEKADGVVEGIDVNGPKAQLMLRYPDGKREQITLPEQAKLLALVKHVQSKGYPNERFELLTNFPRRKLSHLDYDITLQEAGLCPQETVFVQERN
UniProt Q5H9R7, sequence (Q5H9R7 whole entry): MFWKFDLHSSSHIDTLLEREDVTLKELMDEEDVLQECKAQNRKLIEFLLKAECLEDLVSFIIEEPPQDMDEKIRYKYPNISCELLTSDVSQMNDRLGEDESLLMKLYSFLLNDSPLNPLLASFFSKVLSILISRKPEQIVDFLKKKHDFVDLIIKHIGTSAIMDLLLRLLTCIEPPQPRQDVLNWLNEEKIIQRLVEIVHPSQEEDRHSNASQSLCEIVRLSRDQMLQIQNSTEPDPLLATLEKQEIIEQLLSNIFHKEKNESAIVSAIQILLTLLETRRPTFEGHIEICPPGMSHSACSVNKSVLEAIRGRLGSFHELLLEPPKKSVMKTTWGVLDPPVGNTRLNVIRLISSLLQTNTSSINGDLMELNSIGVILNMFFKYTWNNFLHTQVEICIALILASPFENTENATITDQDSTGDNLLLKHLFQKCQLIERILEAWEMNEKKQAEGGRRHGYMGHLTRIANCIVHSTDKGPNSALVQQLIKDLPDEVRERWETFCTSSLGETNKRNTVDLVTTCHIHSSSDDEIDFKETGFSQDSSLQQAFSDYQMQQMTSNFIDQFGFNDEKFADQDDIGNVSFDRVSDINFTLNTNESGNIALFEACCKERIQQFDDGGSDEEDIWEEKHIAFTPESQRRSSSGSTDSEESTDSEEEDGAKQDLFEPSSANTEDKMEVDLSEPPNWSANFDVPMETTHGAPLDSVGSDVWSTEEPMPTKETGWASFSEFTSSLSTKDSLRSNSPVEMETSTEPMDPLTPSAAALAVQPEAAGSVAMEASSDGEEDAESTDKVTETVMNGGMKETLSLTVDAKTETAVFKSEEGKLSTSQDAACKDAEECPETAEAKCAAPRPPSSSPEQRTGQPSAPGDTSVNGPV
UniProt P55786, sequence (P55786 whole entry): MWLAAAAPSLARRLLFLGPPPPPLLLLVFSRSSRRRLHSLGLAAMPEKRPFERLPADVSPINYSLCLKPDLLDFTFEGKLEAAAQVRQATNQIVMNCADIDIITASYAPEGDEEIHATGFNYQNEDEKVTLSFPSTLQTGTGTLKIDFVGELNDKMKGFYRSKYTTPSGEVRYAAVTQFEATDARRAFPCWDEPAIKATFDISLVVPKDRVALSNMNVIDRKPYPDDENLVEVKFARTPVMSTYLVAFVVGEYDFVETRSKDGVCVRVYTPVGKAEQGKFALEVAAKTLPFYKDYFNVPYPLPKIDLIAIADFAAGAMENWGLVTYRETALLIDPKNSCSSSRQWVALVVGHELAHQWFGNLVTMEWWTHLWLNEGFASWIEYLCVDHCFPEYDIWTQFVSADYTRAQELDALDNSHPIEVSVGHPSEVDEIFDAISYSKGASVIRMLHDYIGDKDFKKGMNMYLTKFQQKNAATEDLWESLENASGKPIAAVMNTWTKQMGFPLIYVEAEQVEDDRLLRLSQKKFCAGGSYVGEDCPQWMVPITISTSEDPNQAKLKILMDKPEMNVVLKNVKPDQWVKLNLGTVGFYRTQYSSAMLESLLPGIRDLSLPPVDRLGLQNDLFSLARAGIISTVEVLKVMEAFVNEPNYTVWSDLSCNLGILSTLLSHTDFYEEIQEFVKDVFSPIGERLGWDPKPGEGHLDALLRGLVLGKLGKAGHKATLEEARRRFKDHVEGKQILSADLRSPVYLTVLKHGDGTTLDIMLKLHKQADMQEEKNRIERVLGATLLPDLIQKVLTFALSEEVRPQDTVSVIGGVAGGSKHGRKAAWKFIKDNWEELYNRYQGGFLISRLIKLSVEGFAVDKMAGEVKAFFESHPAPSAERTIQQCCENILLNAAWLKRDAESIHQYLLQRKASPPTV
UniProt Q96QD5, sequence (Q96QD5 whole entry): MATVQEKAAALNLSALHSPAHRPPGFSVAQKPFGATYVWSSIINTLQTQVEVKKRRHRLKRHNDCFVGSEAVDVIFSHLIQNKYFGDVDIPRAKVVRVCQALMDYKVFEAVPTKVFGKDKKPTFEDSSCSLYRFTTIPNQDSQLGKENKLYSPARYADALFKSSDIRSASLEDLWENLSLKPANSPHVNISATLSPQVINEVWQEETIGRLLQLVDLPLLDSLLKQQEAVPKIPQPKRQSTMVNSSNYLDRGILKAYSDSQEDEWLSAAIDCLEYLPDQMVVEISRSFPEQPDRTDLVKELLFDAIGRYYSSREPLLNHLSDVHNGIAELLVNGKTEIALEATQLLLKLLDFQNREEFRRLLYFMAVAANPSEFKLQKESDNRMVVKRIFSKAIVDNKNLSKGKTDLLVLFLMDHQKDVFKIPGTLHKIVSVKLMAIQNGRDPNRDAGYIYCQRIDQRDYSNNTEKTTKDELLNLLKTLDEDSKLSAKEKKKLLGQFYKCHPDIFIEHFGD
UniProt Q96SN8, sequence (Q96SN8 whole entry): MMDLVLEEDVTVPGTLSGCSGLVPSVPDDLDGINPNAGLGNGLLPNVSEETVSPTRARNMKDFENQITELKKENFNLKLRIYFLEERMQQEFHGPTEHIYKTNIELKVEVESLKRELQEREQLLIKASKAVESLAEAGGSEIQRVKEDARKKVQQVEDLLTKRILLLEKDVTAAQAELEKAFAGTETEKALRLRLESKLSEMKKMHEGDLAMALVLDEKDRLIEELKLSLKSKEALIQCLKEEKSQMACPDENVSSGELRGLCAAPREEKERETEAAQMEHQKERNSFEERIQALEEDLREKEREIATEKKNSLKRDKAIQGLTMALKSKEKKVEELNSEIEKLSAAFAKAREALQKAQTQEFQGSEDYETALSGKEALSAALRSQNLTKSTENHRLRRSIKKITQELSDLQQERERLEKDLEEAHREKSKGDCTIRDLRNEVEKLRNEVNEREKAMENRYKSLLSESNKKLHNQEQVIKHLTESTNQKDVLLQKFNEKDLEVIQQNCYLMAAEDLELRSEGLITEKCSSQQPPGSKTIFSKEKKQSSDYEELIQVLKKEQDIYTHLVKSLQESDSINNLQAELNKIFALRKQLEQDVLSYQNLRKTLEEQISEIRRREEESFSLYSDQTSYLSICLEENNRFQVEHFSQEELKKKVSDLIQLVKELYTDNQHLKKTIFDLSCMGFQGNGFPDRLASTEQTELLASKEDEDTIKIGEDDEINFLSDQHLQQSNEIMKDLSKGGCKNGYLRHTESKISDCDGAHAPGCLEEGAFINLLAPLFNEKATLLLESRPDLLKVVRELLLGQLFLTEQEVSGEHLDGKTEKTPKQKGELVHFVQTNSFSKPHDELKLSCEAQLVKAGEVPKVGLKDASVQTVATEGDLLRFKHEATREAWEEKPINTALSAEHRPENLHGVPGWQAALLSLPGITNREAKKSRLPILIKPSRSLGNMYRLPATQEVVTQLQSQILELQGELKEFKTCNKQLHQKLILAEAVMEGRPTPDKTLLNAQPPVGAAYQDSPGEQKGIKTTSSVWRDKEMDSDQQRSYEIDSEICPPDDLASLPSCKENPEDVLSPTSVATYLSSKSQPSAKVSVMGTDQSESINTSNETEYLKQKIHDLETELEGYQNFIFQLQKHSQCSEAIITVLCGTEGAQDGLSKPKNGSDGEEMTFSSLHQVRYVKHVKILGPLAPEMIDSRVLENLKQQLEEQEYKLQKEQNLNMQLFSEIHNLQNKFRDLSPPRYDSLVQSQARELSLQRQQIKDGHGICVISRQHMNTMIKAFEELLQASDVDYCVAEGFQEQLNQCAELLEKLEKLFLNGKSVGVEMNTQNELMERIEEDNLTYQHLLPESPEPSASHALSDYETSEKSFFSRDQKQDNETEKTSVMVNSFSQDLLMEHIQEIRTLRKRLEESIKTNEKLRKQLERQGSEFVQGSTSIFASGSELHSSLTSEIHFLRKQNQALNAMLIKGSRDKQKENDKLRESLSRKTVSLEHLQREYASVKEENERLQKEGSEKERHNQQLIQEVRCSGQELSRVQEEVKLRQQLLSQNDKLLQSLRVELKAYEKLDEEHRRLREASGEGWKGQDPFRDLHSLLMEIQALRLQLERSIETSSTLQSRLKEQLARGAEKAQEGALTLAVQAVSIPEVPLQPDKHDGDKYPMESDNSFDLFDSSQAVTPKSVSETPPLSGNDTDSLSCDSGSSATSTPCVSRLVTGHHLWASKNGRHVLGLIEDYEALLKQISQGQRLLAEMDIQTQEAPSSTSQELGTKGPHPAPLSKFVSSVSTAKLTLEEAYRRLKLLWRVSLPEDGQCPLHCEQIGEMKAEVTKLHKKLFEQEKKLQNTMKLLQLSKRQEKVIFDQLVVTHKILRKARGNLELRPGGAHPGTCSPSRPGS
UniProt P30047, sequence (P30047 whole entry): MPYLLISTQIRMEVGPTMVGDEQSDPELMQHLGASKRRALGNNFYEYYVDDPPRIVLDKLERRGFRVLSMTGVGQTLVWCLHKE

Question: Which thermal stability z-score (potassium arsenate) does the source give for ASB9 (UniProt Q96DX5) here?
Answer: -0.202

Question: And the thermal stability z-score (lipoamide; [1])?
Answer: 0.263

Question: What about the thermal stability z-score (lipoamide; arsenate co-treatment: none) of the same target?
Answer: 0.826

Question: Which results are given for PPP6R3 (UniProt Q5H9R7)?
Answer: thermal stability z-score (potassium arsenate): 0.262; thermal stability z-score (lipoamide; [1]): 1.14; thermal stability z-score (lipoamide; arsenate co-treatment: none): 0.331

Question: How did the thermal stability z-score (potassium arsenate) turn out when SSFA2 (UniProt P28290) was run?
Answer: -0.392

Question: What about the thermal stability z-score (lipoamide; [1]) of the same target?
Answer: -0.0444

Question: And the thermal stability z-score (lipoamide; arsenate co-treatment: none)?
Answer: -0.00989

Question: Which results are given for AXL (UniProt P30530)?
Answer: thermal stability z-score (potassium arsenate): 0.0984; thermal stability z-score (lipoamide; [1]): 0.0102; thermal stability z-score (lipoamide; arsenate co-treatment: none): 0.0513

Question: With KIAA1524 (UniProt Q8TCG1) as the target, how does the thermal stability z-score (potassium arsenate) read?
Answer: 0.662

Question: What about the thermal stability z-score (lipoamide; [1]) of the same target?
Answer: -0.00458

Question: And the thermal stability z-score (lipoamide; arsenate co-treatment: none)?
Answer: -0.0673

Question: Which thermal stability z-score (potassium arsenate) does the source give for RAB1A (UniProt P62820) here?
Answer: 0.312

Question: What about the thermal stability z-score (lipoamide; [1]) of the same target?
Answer: 0.28

Question: And the thermal stability z-score (lipoamide; arsenate co-treatment: none)?
Answer: 0.338

Question: With CDK5RAP2 (UniProt Q96SN8) as the target, how does the thermal stability z-score (potassium arsenate) read?
Answer: -0.112

Question: And the thermal stability z-score (lipoamide; [1])?
Answer: -0.149

Question: What about the thermal stability z-score (lipoamide; arsenate co-treatment: none) of the same target?
Answer: -0.131

Question: Which results are given for LDB1 (UniProt Q86U70)?
Answer: thermal stability z-score (potassium arsenate): -0.783; thermal stability z-score (lipoamide; [1]): 0.244; thermal stability z-score (lipoamide; arsenate co-treatment: none): 1.15

Question: For MTCL1 (UniProt Q9Y4B5), which thermal stability z-score (potassium arsenate) is on record?
Answer: -1.54

Question: What about the thermal stability z-score (lipoamide; [1]) of the same target?
Answer: -0.242

Question: What about the thermal stability z-score (lipoamide; arsenate co-treatment: none) of the same target?
Answer: 0.0775

Question: Which results are given for LIG1 (UniProt P18858)?
Answer: thermal stability z-score (potassium arsenate): 0.24; thermal stability z-score (lipoamide; [1]): -0.166; thermal stability z-score (lipoamide; arsenate co-treatment: none): 0.00122

Question: With GDPGP1 (UniProt Q6ZNW5) as the target, how does the thermal stability z-score (potassium arsenate) read?
Answer: -0.786

Question: What about the thermal stability z-score (lipoamide; [1]) of the same target?
Answer: -0.332

Question: What about the thermal stability z-score (lipoamide; arsenate co-treatment: none) of the same target?
Answer: -0.511

Question: How did the thermal stability z-score (potassium arsenate) turn out when UBXN7 (UniProt O94888) was run?
Answer: -0.679

Question: What about the thermal stability z-score (lipoamide; [1]) of the same target?
Answer: -0.462

Question: What about the thermal stability z-score (lipoamide; arsenate co-treatment: none) of the same target?
Answer: 0.55

Question: How did the thermal stability z-score (potassium arsenate) turn out when RPSA (UniProt P08865) was run?
Answer: -1.42

Question: What about the thermal stability z-score (lipoamide; [1]) of the same target?
Answer: 0.555

Question: And the thermal stability z-score (lipoamide; arsenate co-treatment: none)?
Answer: 0.847

Question: FBXL20 (UniProt Q96IG2) was tested. Which thermal stability z-score (potassium arsenate) did it give?
Answer: -0.992

Question: What about the thermal stability z-score (lipoamide; [1]) of the same target?
Answer: -1.2

Question: And the thermal stability z-score (lipoamide; arsenate co-treatment: none)?
Answer: -1.06

Question: With GCHFR (UniProt P30047) as the target, how does the thermal stability z-score (potassium arsenate) read?
Answer: 0.0269

Question: What about the thermal stability z-score (lipoamide; [1]) of the same target?
Answer: -0.485

Question: And the thermal stability z-score (lipoamide; arsenate co-treatment: none)?
Answer: -0.374

Question: With ALKBH4 (UniProt Q9NXW9) as the target, how does the thermal stability z-score (potassium arsenate) read?
Answer: -0.163

Question: What about the thermal stability z-score (lipoamide; [1]) of the same target?
Answer: 0.0364

Question: What about the thermal stability z-score (lipoamide; arsenate co-treatment: none) of the same target?
Answer: 0.0782

Question: How did the thermal stability z-score (potassium arsenate) turn out when AAGAB (UniProt Q6PD74) was run?
Answer: 2.05

Question: What about the thermal stability z-score (lipoamide; [1]) of the same target?
Answer: 0.334

Question: What about the thermal stability z-score (lipoamide; arsenate co-treatment: none) of the same target?
Answer: 0.843

Question: Which results are given for CCDC58 (UniProt Q4VC31)?
Answer: thermal stability z-score (potassium arsenate): 0.303; thermal stability z-score (lipoamide; [1]): 0.552; thermal stability z-score (lipoamide; arsenate co-treatment: none): 0.284

Question: How did the thermal stability z-score (potassium arsenate) turn out when SDHA (UniProt P31040) was run?
Answer: -1.17

Question: And the thermal stability z-score (lipoamide; [1])?
Answer: -0.493

Question: What about the thermal stability z-score (lipoamide; arsenate co-treatment: none) of the same target?
Answer: -0.532

Question: SLC33A1 (UniProt O00400) was tested. Which thermal stability z-score (potassium arsenate) did it give?
Answer: 0.345

Question: And the thermal stability z-score (lipoamide; [1])?
Answer: 0.69

Question: What about the thermal stability z-score (lipoamide; arsenate co-treatment: none) of the same target?
Answer: 1.25

Question: For CCDC18 (UniProt Q5T9S5), which thermal stability z-score (potassium arsenate) is on record?
Answer: 0.0398

Question: What about the thermal stability z-score (lipoamide; [1]) of the same target?
Answer: 0.0532

Question: And the thermal stability z-score (lipoamide; arsenate co-treatment: none)?
Answer: -0.042

Question: Which results are given for AVEN (UniProt Q9NQS1)?
Answer: thermal stability z-score (potassium arsenate): -0.823; thermal stability z-score (lipoamide; [1]): 0.134; thermal stability z-score (lipoamide; arsenate co-treatment: none): -0.00487

Question: With SYNJ2BP (UniProt P57105) as the target, how does the thermal stability z-score (potassium arsenate) read?
Answer: 0.518

Question: And the thermal stability z-score (lipoamide; [1])?
Answer: 0.988

Question: What about the thermal stability z-score (lipoamide; arsenate co-treatment: none) of the same target?
Answer: 0.247

Question: GPS1 (UniProt Q13098) was tested. Which thermal stability z-score (potassium arsenate) did it give?
Answer: 0.904

Question: And the thermal stability z-score (lipoamide; [1])?
Answer: 0.881

Question: What about the thermal stability z-score (lipoamide; arsenate co-treatment: none) of the same target?
Answer: 0.892

Question: APLP2 (UniProt Q06481) was tested. Which thermal stability z-score (potassium arsenate) did it give?
Answer: -0.251

Question: And the thermal stability z-score (lipoamide; [1])?
Answer: -2.13

Question: And the thermal stability z-score (lipoamide; arsenate co-treatment: none)?
Answer: -1.76

Question: Which results are given for DEPDC7 (UniProt Q96QD5)?
Answer: thermal stability z-score (potassium arsenate): -0.221; thermal stability z-score (lipoamide; [1]): -0.328; thermal stability z-score (lipoamide; arsenate co-treatment: none): -0.237

Question: DPH7 (UniProt Q9BTV6) was tested. Which thermal stability z-score (potassium arsenate) did it give?
Answer: 0.093

Question: What about the thermal stability z-score (lipoamide; [1]) of the same target?
Answer: -1.62

Question: What about the thermal stability z-score (lipoamide; arsenate co-treatment: none) of the same target?
Answer: 0.272

Question: Which thermal stability z-score (potassium arsenate) does the source give for CRBN (UniProt Q96SW2) here?
Answer: -0.0801

Question: And the thermal stability z-score (lipoamide; [1])?
Answer: 0.304

Question: And the thermal stability z-score (lipoamide; arsenate co-treatment: none)?
Answer: -0.141

Question: For HAUS4 (UniProt Q9H6D7), which thermal stability z-score (potassium arsenate) is on record?
Answer: 0.0479

Question: What about the thermal stability z-score (lipoamide; [1]) of the same target?
Answer: -0.0376

Question: What about the thermal stability z-score (lipoamide; arsenate co-treatment: none) of the same target?
Answer: 0.0952

Question: With NPEPPS (UniProt P55786) as the target, how does the thermal stability z-score (potassium arsenate) read?
Answer: 0.725

Question: What about the thermal stability z-score (lipoamide; [1]) of the same target?
Answer: 0.502

Question: What about the thermal stability z-score (lipoamide; arsenate co-treatment: none) of the same target?
Answer: 0.202
